We go through 17 compounds from ChEMBL document CHEMBL1147761, “Novel 1,3-dipropyl-8-(1-heteroarylmethyl-1H-pyrazol-4-yl)-xanthine derivatives as high affinity and selective A2B adenosine receptor antagonists” (Bioorg Med Chem Lett, 2006).

Series [1] has as its target Adenosine receptors; A2b & A3 (Homo sapiens) (UniProt P29275+P0DMS8). The series can be described thus: Selectivity of adenosine A3 receptor over adenosine A2B receptor. The format is protein assay.
Another series addresses T1, Adenosine receptor A3 (Homo sapiens, UniProt P0DMS8).
T1 sequence (P0DMS8 whole entry): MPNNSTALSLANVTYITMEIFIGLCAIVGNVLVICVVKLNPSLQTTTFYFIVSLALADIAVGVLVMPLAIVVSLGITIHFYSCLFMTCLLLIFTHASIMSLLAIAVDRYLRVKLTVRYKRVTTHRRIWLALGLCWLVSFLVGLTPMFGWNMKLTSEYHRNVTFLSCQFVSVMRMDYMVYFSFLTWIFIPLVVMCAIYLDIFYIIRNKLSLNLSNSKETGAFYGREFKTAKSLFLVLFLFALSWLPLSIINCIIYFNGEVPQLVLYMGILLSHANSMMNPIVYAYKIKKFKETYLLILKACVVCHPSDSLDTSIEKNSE
The series is described as follows: Displacement of [125I]AB-MECA from Adenosine A3 receptor expressed in CHO cells. The format is cell-based.

For a further series, the target named is T2, Adenosine receptor A2b (Homo sapiens, UniProt P29275).
T2 sequence (P29275 whole entry): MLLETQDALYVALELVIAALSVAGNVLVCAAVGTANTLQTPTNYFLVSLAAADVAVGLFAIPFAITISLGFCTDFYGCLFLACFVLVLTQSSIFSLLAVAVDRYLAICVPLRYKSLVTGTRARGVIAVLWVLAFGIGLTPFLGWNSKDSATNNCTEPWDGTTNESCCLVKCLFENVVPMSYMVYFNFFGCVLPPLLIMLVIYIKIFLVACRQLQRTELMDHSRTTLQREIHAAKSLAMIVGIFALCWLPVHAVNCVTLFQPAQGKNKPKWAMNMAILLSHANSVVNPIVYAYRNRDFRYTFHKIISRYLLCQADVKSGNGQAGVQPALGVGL
The series can be described thus: Displacement of [3H]ZM-241385 from Adenosine A2B receptor expressed in HEK cells. It counts as cell-based, HEK293. (In general: Loss of bound radioactivity is the signal in a displacement assay; it reports binding, not function.)

The next series has as its target T3, Adenosine receptor A1 (Homo sapiens, UniProt P30542).
T3 sequence (P30542 whole entry): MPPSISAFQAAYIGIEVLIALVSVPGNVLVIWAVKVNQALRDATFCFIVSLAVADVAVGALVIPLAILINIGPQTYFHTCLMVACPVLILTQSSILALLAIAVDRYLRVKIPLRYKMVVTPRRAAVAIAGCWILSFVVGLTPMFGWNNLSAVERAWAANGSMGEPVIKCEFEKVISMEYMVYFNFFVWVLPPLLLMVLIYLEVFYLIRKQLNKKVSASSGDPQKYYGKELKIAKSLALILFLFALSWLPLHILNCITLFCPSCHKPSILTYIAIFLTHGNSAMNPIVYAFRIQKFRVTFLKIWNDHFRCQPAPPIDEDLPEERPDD
The series is described as follows: Displacement of [3H]CPX from Adenosine A1 receptor expressed in CHO cells. The format is cell-based.

Series [2] has as its target Adenosine receptors; A1 & A2b (Homo sapiens) (UniProt P30542+P29275). The series can be described thus: Selectivity of adenosine A1 receptor over adenosine A2B receptor. It counts as protein assay.
The target in series [3] is Adenosine A2 receptor (Homo sapiens) (UniProt P29275+P29274). The series can be described thus: Selectivity of adenosine A2A receptor over adenosine A2B receptor. The format is protein assay.
Chain of Adenosine A2 receptor (Homo sapiens) (P29274 whole entry, looked up, one chain of several): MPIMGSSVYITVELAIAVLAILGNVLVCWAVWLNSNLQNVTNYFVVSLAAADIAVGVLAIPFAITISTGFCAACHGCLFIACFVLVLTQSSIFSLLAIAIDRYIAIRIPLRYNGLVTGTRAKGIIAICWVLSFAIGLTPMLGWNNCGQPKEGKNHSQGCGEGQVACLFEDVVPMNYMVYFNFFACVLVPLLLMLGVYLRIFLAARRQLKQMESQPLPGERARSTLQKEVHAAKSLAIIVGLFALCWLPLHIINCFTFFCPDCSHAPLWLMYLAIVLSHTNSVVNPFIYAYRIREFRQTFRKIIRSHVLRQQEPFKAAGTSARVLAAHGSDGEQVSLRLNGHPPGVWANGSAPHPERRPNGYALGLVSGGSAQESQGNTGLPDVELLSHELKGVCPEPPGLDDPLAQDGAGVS
For a further series, the target named is Adenosine receptor A2a (Homo sapiens, UniProt P29274). The series is described as follows: Displacement of [3H]ZM-241385 from Adenosine A2A receptor expressed in HEK cells. It counts as cell-based, HEK293.
Chain of Adenosine receptor A2a (P29274 whole entry): as the sequence (P29274 whole entry, looked up, one chain of several) above
Series [4] is described as follows: Oral bioavailability in rat administered at 1 mg/kg. As to conditions: in vivo. The format is ADME, organism-based.
Series [5] can be described thus: Half life in rat administered at 1 mg/kg. On the set-up: dose 1 mg/kg. The conditions noted are these: in vivo. The format is ADME, organism-based.
A short description of series [6]: AUC in rat administered at 1 mg/kg. It counts as ADME, organism-based. More on the design: dose 1 mg/kg. The conditions noted are these: plasma.

As to `CCCn1c(=O)c2nc(-c3cnn(Cc4cc(-c5cccc(OC)c5)on4)c3)[nH]c2n(CCC)c1=O`, the Ratio Ki in series [1] is more than 38; in series [2], 27; in [3] it was more than 38. In addition, the Ki (commonly the equilibrium dissociation constant of an inhibitor or competing ligand from its target) on Adenosine receptor A3 is more than 5 µM; on Adenosine receptor A2b it was 0.131 µM; on Adenosine receptor A1, 3.5 µM; on Adenosine receptor A2a, more than 5 µM.
Regarding `CCCn1c(=O)c2nc(-c3cnn(Cc4noc(-c5ccc(OC)cc5)n4)c3)[nH]c2n(CCC)c1=O`, the Ratio Ki in [1] was 19; in series [2], 32; in [3], more than 40. The Ki on Adenosine receptor A3 is 2.3 µM; at Adenosine receptor A2b it was 0.123 µM; at Adenosine receptor A1, 3.9 µM; at Adenosine receptor A2a it was more than 5 µM.
Turning to `CCCn1c(=O)c2[nH]c(-c3cnn(Cc4cc(-c5ccccc5)on4)c3)nc2n(CCC)c1=O`, the Ratio Ki in series [1] was 128; in [2] it was 107; in series [3] it was 30. Besides, the Ki at Adenosine receptor A3 was 1.8 µM; at Adenosine receptor A2b it was 0.014 µM; on Adenosine receptor A1, 1.5 µM; on Adenosine receptor A2a, 0.42 µM.
In the case of `CCCn1c(=O)c2nc(-c3cnn(Cc4nc(-c5ccccc5C(F)(F)F)no4)c3)[nH]c2n(CCC)c1=O`, the Ratio Ki in series [1] was 4; in [2], 7; in series [3], more than 67. Besides, the Ki on Adenosine receptor A3 was 0.34 µM; at Adenosine receptor A2b, 0.074 µM; on Adenosine receptor A1, 0.53 µM; at Adenosine receptor A2a it was more than 5 µM.
In the case of `CCCn1c(=O)c2nc(-c3cnn(Cc4cc(-c5cccc(Cl)c5)on4)c3)[nH]c2n(CCC)c1=O`, the Ratio Ki is 27 in series [1], 28 in series [2] and more than 30 in series [3]. In addition, the Ki at Adenosine receptor A3 was 4.4 µM; on Adenosine receptor A2b it was 0.163 µM; on Adenosine receptor A1 it was 4.6 µM; at Adenosine receptor A2a, more than 5 µM.
Take `CCCn1c(=O)c2nc(-c3cnn(Cc4nc(-c5ccccc5Cl)no4)c3)[nH]c2n(CCC)c1=O`: the Ratio Ki in [1] came out at 25; in series [2] it was 130; in series [3], 130. In addition, the Ki at Adenosine receptor A3 stood at 0.49 µM; at Adenosine receptor A2b it was 0.019 µM; at Adenosine receptor A1, 2.5 µM; on Adenosine receptor A2a, 2.5 µM.
As for `CCCn1c(=O)c2nc(-c3cnn(Cc4noc(-c5ccc(Cl)cc5)n4)c3)[nH]c2n(CCC)c1=O`, the Ratio Ki was more than 213 in series [1], 74 in series [2] and more than 128 in [3]. Besides, the Ki was more than 8.3 µM on Adenosine receptor A3, 0.039 µM on Adenosine receptor A2b, 2.9 µM on Adenosine receptor A1 and more than 5 µM on Adenosine receptor A2a.
With `CCCn1c(=O)c2nc(-c3cnn(Cc4nc(-c5ccc(Cl)cc5)no4)c3)[nH]c2n(CCC)c1=O`, the Ratio Ki was 19 in series [1], 35 in series [2] and 85 in series [3]. Also, in [4], the bioavailability – broadly, the share of a dose that reaches the circulation, judged against a reference dose that is usually intravenous – was 22%. For the same compound, the Ki on Adenosine receptor A3 amounted to 0.4 µM; at Adenosine receptor A2b it was 0.021 µM; on Adenosine receptor A1 it was 0.74 µM; on Adenosine receptor A2a, 1.8 µM. The half-life (commonly the time needed for the level to fall by half in the phase considered) in [5] is 1.5 h. Also, the AUC (as a rule, concentration integrated over time) in [6] came out at 2.33 µg·h/mL.
In the case of `CCCn1c(=O)c2[nH]c(-c3cnn(Cc4noc(-c5ccccc5)n4)c3)nc2n(CCC)c1=O`, the figures for the Ratio Ki in series [1], in [2] and in series [3] were 30, 47 and 85, respectively. Further, the Ki was found to be 0.63 µM on Adenosine receptor A3, 0.021 µM on Adenosine receptor A2b, 1 µM on Adenosine receptor A1 and 1.8 µM on Adenosine receptor A2a.
`CCCn1c(=O)c2nc(-c3cnn(Cc4cc(-c5ccccc5C(F)(F)F)on4)c3)[nH]c2n(CCC)c1=O`: the values for the Ratio Ki in series [1], in series [2] and in [3] were 34, 30 and more than 41, respectively. The Ki at Adenosine receptor A3 is 4.2 µM; at Adenosine receptor A2b it was 0.121 µM; at Adenosine receptor A1, 3.7 µM; on Adenosine receptor A2a, more than 5 µM.
Turning to `CCCn1c(=O)c2nc(-c3cnn(Cc4nc(-c5ccc(OC)cc5)no4)c3)[nH]c2n(CCC)c1=O`, the Ratio Ki in series [1] was 14; in series [2], 28; in [3] it was more than 47. Besides, the inhibition constant (Ki) is 1.5 µM at Adenosine receptor A3, 0.106 µM on Adenosine receptor A2b, 3 µM on Adenosine receptor A1 and more than 5 µM at Adenosine receptor A2a.
Consider `CCCn1c(=O)c2nc(-c3cnn(Cc4noc(-c5cccc(Cl)c5)n4)c3)[nH]c2n(CCC)c1=O`, for which the Ratio Ki in series [1] is 22; in [2], 22; in series [3] it was more than 37. Moreover, the inhibitory constant (Ki) at Adenosine receptor A3 is 3 µM; at Adenosine receptor A2b, 0.134 µM; at Adenosine receptor A1, 3 µM; at Adenosine receptor A2a it was more than 5 µM.
For `CCCn1c(=O)c2nc(-c3cnn(Cc4noc(-c5ccccc5OC)n4)c3)[nH]c2n(CCC)c1=O`, the Ratio Ki in [1] is more than 100; in [2], 11; in [3] it was 40. The inhibition constant (Ki) at Adenosine receptor A3 is more than 8.3 µM; at Adenosine receptor A2b it was 0.083 µM; at Adenosine receptor A1 it was 0.93 µM; at Adenosine receptor A2a, 3.4 µM.
In the case of `CCCn1c(=O)c2nc(-c3cnn(Cc4nc(-c5cccc(C(F)(F)F)c5)no4)c3)[nH]c2n(CCC)c1=O`, the Ratio Ki in [1] was 22; in series [2] it was 83; in series [3], more than 119. Moreover, the Ki is 0.96 µM at Adenosine receptor A3, 0.042 µM at Adenosine receptor A2b, 3.5 µM on Adenosine receptor A1 and more than 5 µM on Adenosine receptor A2a.
With `CCCn1c(=O)c2nc(-c3cnn(Cc4nc(-c5ccccc5)no4)c3)[nH]c2n(CCC)c1=O`, the Ratio Ki was determined as 480 in series [1], 370 in [2] and 1100 in series [3]. Moreover, the Ki on Adenosine receptor A3 was 0.48 µM; on Adenosine receptor A2b, 0.001 µM; at Adenosine receptor A1 it was 0.37 µM; at Adenosine receptor A2a, 1.1 µM.
Regarding `CCCn1c(=O)c2nc(-c3cnn(Cc4noc(-c5ccc(C(F)(F)F)cc5)n4)c3)[nH]c2n(CCC)c1=O`, the Ratio Ki in series [1] was 61; in [2], more than 285; in series [3] it was more than 238. For the same compound, the Ki on Adenosine receptor A3 was 1.3 µM; on Adenosine receptor A2b, 0.021 µM; at Adenosine receptor A1, more than 6 µM; on Adenosine receptor A2a, more than 5 µM.
Turning to `CCCn1c(=O)c2[nH]c(-c3cnn(Cc4cc(-c5ccc(Cl)cc5)on4)c3)nc2n(CCC)c1=O`, the Ki at Adenosine receptor A3 worked out at 3.3 µM; on Adenosine receptor A2b, 0.082 µM; on Adenosine receptor A1, 0.54 µM; at Adenosine receptor A2a, 1.2 µM.
